Source: article PMC10623575, “Discovery of Potent and Selective CB2 Agonists Utilizing a Function-Based Computational Screening Protocol” (ACS Chemical Neuroscience, 2023)
Where two headings read alike, the source gives them in different places.

Columns and labels:
CB1 receptor = CB1 receptor (Homo sapiens, UniProt P21554); experiment: Calcium mobilization assay, agonist mode, CHO expressing CB1 and Gα16; assay type: cell-based
Description: (§1) Chinese hamster ovarian (CHO) cells collected from the American Type Culture Collection were maintained in Ham’s F-12K (Kaighn’s) supplemented with 100 mg/L streptomycin, 100 mg/L penicillin, and 10% fetal bovine serum (FBS) in a humidified atmosphere of 5% CO2 at 37 °C. CHO cells were co-transfected with plasmids encoding CB1 or CB2 and Gα16 by electroporation. To establish stable cell lines, transfected cells were seeded on 10 cm dishes with 40 μg/mL blasticidin and 1 mg/mL G418 in culture medium after 24 h. The selection medium was substituted once every 3 days until colonies formed. A solitary colony was obtained, propagated, and assessed using a calcium mobilization assay to verify the function and expression of the transfected genes.
(§2) 3 × 10^4 cells/well were employed to seed cells onto 96-well plates, which were subsequently incubated throughout the night. […] For antagonist mode, the extra dye was washed out and 50 μL of HBSS with test compounds, DMSO (negative control), or AM630 (positive control) was introduced. […] To be noticed, each experiment has been independently replicated three times, with three repetitions and eight gradients each time.
(§3) The collected data were processed with GraphPad Prism software (GraphPad). […] Means ± SEM were computed utilizing this software. The analyses were evaluated by the Student t test. When the p value is smaller than 0.05, the result is statistically significant.

CB2 receptor = target: T1, CB2 receptor (Homo sapiens, UniProt P34972); experiment: Calcium mobilization assay, agonist mode, CHO expressing CB2 and Gα16; assay type: cell-based; conditions: for SI, selectivity index for the CB2, SI = EC50(CB1)/EC50(CB2): agonist mode; for CB1 and CB2 biological activity (in words): CB1 and CB2 calcium mobilization assays, up to 10 μM
T1 construct: expressed in transfected cells
T1 sequence (P34972 whole entry): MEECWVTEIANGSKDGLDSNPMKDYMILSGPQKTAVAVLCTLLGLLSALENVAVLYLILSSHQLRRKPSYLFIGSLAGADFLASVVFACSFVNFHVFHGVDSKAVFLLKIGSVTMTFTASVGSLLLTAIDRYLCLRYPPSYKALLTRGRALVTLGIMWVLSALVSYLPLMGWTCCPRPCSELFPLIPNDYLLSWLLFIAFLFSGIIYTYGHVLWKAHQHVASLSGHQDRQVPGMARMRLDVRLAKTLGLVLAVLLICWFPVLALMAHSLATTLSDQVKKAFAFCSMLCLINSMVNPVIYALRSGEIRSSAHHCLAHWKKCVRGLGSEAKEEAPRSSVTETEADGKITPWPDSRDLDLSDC
Description: as §1, §2, §3

[1] = agonist activity, CHO expressing CB1, mean ± SEM, read-out: CB1 EC50
[2] = agonist activity, CHO expressing CB2, three independent assays, mean ± SEM, read-out: CB2 EC50
[3] = single independent experiment, replicate 1, read-out: CB2 agonist(μM) replicate 1
[4] = single independent experiment, replicate 2, read-out: CB2 agonist(μM) replicate 2
[5] = single independent experiment, replicate 3, read-out: CB2 agonist(μM) replicate3

Sequence of CB1 receptor (P21554 whole entry): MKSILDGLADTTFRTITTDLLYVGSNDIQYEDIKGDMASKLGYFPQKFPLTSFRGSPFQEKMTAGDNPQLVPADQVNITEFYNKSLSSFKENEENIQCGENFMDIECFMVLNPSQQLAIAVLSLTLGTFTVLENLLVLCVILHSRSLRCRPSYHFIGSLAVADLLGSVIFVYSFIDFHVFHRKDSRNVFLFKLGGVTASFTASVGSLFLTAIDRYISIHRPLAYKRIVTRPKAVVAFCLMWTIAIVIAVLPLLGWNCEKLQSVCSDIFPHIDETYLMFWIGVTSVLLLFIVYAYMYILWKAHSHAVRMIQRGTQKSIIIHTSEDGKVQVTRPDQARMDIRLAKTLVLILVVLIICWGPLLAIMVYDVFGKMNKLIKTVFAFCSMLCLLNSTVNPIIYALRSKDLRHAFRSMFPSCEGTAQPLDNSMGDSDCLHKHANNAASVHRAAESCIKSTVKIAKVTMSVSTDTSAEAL

Row | Structure (SMILES) | EC50 (CB1 receptor; [1]) | EC50 (CB2 receptor; [2]) | SI, selectivity index for the CB2, SI = EC50(CB1)/EC50(CB2) (CB2 receptor) | EC50 (CB2 receptor; [3]) | EC50 (CB2 receptor; [4]) | EC50 (CB2 receptor; [5]) | also measured
1 | CC(C)N1C(=O)SC(=Cc2ccccc2OCc2ccccc2C#N)C1=O [Compound 1, 2-((2-((3-Isopropyl-2,4-dioxothiazolidin-5-ylidene)methyl)phenoxy)methyl) Benzonitrile] | > 10 µM | 3.12 ± 2.22 µM | >3 | 1.75 µM | 7.47 µM | 0.139 µM | bioactivity against CB1 (in words) (CB1 receptor; 10 μM): no bioactivity; response against CHO–CB2 by calcium assay (CB2 receptor; 10 μM): > 40%
2 | CC(C)CN1C(=O)SC(=Cc2ccccc2OCc2ccccc2C#N)C1=O [Compound 2, 2-((2-((3-Isobutyl-2,4-dioxothiazolidin-5-ylidene)methyl)phenoxy)methyl) Benzonitrile] | > 10 µM | 3.22 ± 2.67 µM | >3 | 0.43 µM | 8.56 µM | 0.68 µM | 
3 | CCCN1C(=O)SC(=Cc2ccccc2OCc2ccccc2C#N)C1=O [Compound 3, 2-((2-((2,4-Dioxo-3-propylthiazolidin-5-ylidene)methyl)phenoxy)methyl) Benzo Nitrile] | > 10 µM | > 10 µM |  |  |  |  | 
4 | CCCCN1C(=O)SC(=Cc2ccccc2OCc2ccccc2C#N)C1=O [Compound 4, 2-((2-((3-Butyl-2,4-dioxothiazolidin-5-ylidene)methyl)phenoxy)methyl)benzo Nitrile] | > 10 µM | > 10 µM |  |  |  |  | 
5 | N#Cc1ccccc1COc1ccccc1C=C1SC(=O)N(C2CCCC2)C1=O [Compound 5, 2-((2-((3-Cyclopentyl-2,4-dioxothiazolidin-5-ylidene)methyl)phenoxy)methyl) Benzonitrile] | > 10 µM | 2.26 ± 0.48 µM | >4 | 1.67 µM | 1.92 µM | 3.2 µM | 
6 | CC(C)N1C(=O)SC(=Cc2ccccc2OCc2ccccc2F)C1=O [Compound 6, 5-(2-((2-Fluorobenzyl)oxy)benzylidene)-3-isopropylthiazolidine-2,4-dione] | > 10 µM | 0.37 ± 0.26 µM | >27 | 0.188 µM | 0.026 µM | 0.886 µM | 
7 | CC(C)N1C(=O)SC(=Cc2ccccc2OCc2cccc(Br)c2)C1=O [Compound 7, 5-(2-((3-Bromobenzyl)oxy)benzylidene)-3-isopropylthiazolidine-2,4-dione] | > 10 µM | > 10 µM |  |  |  |  | CB1 and CB2 biological activity (in words) (CB2 receptor): do not show biological activities
8 | CC(C)N1C(=O)SC(=Cc2ccccc2OCCN2CCOCC2)C1=O [Compound 8, 3-Isopropyl-5-(2-(2-morpholinoethoxy)benzylidene) Thiazolidine-2,4-dione] |  |  | 8 |  |  |  | EC50 (CB1 receptor; CB1 EC50, agonist activity, CHO expressing CB1, mean ± SEM): 0.75 ± 0.48 µM; EC50 (CB1 receptor; CB1 agonist(μM) replicate 1, single independent experiment, replicate 1): 0.455 µM; EC50 (CB1 receptor; CB1 agonist(μM) replicate 2, single independent experiment, replicate 2): 0.109 µM; EC50 (CB1 receptor; CB1 agonist(μM) replicate3, single independent experiment, replicate 3): 1.7 µM; EC50 (CB2 receptor; CB2 EC50, agonist activity, CHO expressing CB2, three independent assays, mean ± SEM): 0.09 ± 0.07 µM; EC50 (CB2 receptor; CB2 agonist(μM) replicate 1, single independent experiment, replicate 1): 0.227 µM; EC50 (CB2 receptor; CB2 agonist(μM) replicate 2, single independent experiment, replicate 2): 0.026 µM; EC50 (CB2 receptor; CB2 agonist(μM) replicate3, single independent experiment, replicate 3): 0.022 µM
9 | COc1cc(COc2ccccc2C=C2SC(=O)N(C(C)C)C2=O)cc(OC)c1 [Compound 9, 5-(2-((3,5-Dimethoxybenzyl)oxy)benzylidene)-3-isopropylthiazolidine-2,4-dione] | > 10 µM | > 10 µM |  |  |  |  | CB1 and CB2 biological activity (in words) (CB2 receptor): do not show biological activities
10 | CC(C)CN1C(=O)SC(=Cc2ccccc2OCc2ccccc2F)C1=O [Compound 10, 5-(2-((2-Fluorobenzyl)oxy)benzylidene)-3-isobutylthiazolidine-2,4-dione] | > 10 µM | 1.6 ± 0.21 µM | >6 | 1.78 µM | 1.18 µM | 1.83 µM | 
11 | COc1cc(COc2ccccc2C=C2SC(=O)N(CC(C)C)C2=O)cc(OC)c1 [Compound 11, 5-(2-((3,5-Dimethoxybenzyl)oxy)benzylidene)-3-isobutylthiazolidine-2,4-dione] | > 10 µM | > 10 µM |  |  |  |  | 
12 | O=C1SC(=Cc2ccccc2OCc2ccccc2F)C(=O)N1C1CCCC1 [Compound 12, 3-Cyclopentyl-5-(2-((2-fluorobenzyl)oxy)benzylidene)thiazolidine-2,4-dione] | > 10 µM | > 10 µM |  |  |  |  | CB1 and CB2 biological activity (in words) (CB2 receptor): no bioactivity
13 | CC(C)CN1C(=O)SC(=Cc2ccccc2OC(=O)c2ccccc2F)C1=O [Compound 13, 2-((3-Isobutyl-2,4-dioxothiazolidin-5-ylidene)methyl)phenyl 2-Fluorobenzoate] | > 10 µM | 1.78 ± 0.25 µM | >5 | 1.66 µM | 2.26 µM | 1.44 µM | 
14 | CCCCCCCC(=O)Oc1ccccc1C=C1SC(=O)N(CC(C)C)C1=O [Compound 14, 2-((3-Isobutyl-2,4-dioxothiazolidin-5-ylidene)methyl) Phenyl Octanoate] | > 10 µM | > 10 µM |  |  |  |  | 
15 | CC(C)CN1C(=O)SC(=Cc2ccccc2OC(=O)N2CCOCC2)C1=O [Compound 15, 2-((3-Isobutyl-2,4-dioxothiazolidin-5-ylidene)methyl)phenyl Morpholine-4-carboxylate] | > 10 µM | 1.58 ± 1.12 µM | >6 | 0.486 µM | 3.82 µM | 0.43 µM | 
16 | CC(C)CN1C(=O)S/C(=C\c2ccccc2OC(=O)C(C)(C)CCl)C1=O [Compound 16, 2-((3-Isobutyl-2,4-dioxothiazolidin-5-ylidene)methyl) Phenyl 3-Chloro-2,2-dimethylpropanoate] | > 10 µM | 1.51 ± 0.29 µM | >6 | 0.949 µM | 1.89 µM | 1.69 µM | 
17 | CC(C)N1C(=O)SC(=Cc2ccccc2OC(=O)N2CCOCC2)C1=O [Compound 17, 2-((3-Isopropyl-2,4-dioxothiazolidin-5-ylidene)methyl)phenyl Morpholine-4-carboxylate] | > 10 µM | 0.66 ± 0.34 µM | >15 | 0.166 µM | 1.31 µM | 0.489 µM | 
18 | CC(C)N1C(=O)S/C(=C\c2ccccc2OC(=O)c2ccccc2F)C1=O [Compound 18, 2-((3-Isopropyl-2,4-dioxothiazolidin-5-ylidene)methyl) Phenyl 2-Fluoro Benzoate] | > 10 µM | 3.64 ± 1.14 µM | >2 | 4.96 µM | 4.58 µM | 1.38 µM | 
19 | CC(C)N1C(=O)S/C(=C\c2ccccc2OC(=O)C23CC4CC(CC(C4)C2)C3)C1=O [Compound 19, 2-((3-Isopropyl-2,4-dioxothiazolidin-5-ylidene) Methyl) Phenyl (3r,5r,7r)-Adamantane-1-carboxylate] | > 10 µM | > 10 µM |  |  |  |  | 
20 | CCCCCCCC(=O)Oc1ccccc1/C=C1\SC(=O)N(C(C)C)C1=O [Compound 20, 2-((3-Isopropyl-2,4-dioxothiazolidin-5-ylidene) Methyl) Phenyl Octanoate] | > 10 µM | > 10 µM |  |  |  |  | 
21 | CC(C)N1C(=O)SC(=Cc2ccccc2OC(=O)C(C)(C)CCl)C1=O [Compound 21, 2-((3-Isopropyl-2,4-dioxothiazolidin-5-ylidene)methyl)phenyl 3-Chloro-2,2-dimethylpropanoate] | > 10 µM | 2.33 ± 0.45 µM | >4 | 1.46 µM | 2.61 µM | 2.93 µM | 
